This is an account of results in patent publication US20240343733A1, “COMPOUNDS FOR TARGETING DEGRADATION OF IRAK4 PROTEINS” (BIOGEN MA INC., priority 2021, published 2024).

For orientation: DC50 means the concentration giving 50% degradation. A higher DC50 goes with a less potent degrader.

Where only a bound is given, the exact number is not on record here.

The target of this assay is T1, IRAK4 (Homo sapiens, UniProt Q9NWZ3).
T1 construct: 293Tcells expressing HiBiT-tagged IRAK4 were then added into 384-well plates
T1 sequence (Q9NWZ3 1-460): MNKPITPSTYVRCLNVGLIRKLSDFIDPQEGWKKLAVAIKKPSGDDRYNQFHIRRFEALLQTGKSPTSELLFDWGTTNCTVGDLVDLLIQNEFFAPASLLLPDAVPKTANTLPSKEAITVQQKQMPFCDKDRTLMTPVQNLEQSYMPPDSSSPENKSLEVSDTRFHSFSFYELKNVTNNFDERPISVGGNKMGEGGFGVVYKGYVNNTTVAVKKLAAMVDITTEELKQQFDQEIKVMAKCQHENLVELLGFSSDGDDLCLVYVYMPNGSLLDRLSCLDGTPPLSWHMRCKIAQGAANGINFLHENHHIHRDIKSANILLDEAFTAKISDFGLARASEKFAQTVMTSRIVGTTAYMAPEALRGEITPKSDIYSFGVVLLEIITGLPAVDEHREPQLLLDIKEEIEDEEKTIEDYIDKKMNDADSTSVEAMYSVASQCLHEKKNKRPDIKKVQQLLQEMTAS
Put plainly: IRAK4 Degradation Assay, HiBiT Method. The assay is classed as cell-based. Conditions: 293T cells expressing HiBiT-tagged IRAK4, 6 hours. On the procedure:
Assay 1. IRAK4 Degradation Assay, HiBiT Method
Selected compounds were tested in an IRAK4 degradation assay using the HiBiT Method.
Phenol red-free Dulbecco's modified Eagle medium (DMEM) and fetal bovine serum (FBS) were purchased from Gibco (Grand Island, NY, USA). The Nano-Glo® HiBiT Lytic Assay System was purchased from Promega (Madison, WI, USA). Cell culture flasks and 384-well microplates were acquired from VWR (Radnor, PA, USA). The 293Tcell line was engineered by knocking-in a HiBiT fusion tag into the C-terminal of the IRAK4 gene in 293T cells (Synthego, Redwood City, CA, USA).
IRAK4 degradation was measured via the quantification of luminescent signals using the Nano-Glo® HiBiT Lytic Assay kit. Test compounds were added to 384-well plates in duplicate using an 11-point half-log dilution series, with the highest dose set at […]. 293Tcells expressing HiBiT-tagged IRAK4 were then added into 384-well plates at a cell density of 10,000 cells per well. The plates were kept at 37° C. with 5% CO2 for 6 hours. Cells that were treated only with DMSO served as the negative control; wells that contained only assay media served as the background control. After the 6-hour incubation, Nano-Glo® HiBiT Lytic Assay reagents were added to the cells. Luminescence was acquired using an EnVision™ Multilabel Reader (PerkinElmer, Santa Clara, CA, USA).
As to `CC(C)Oc1cc2nc([C@H]3CC[C@H](CN4CCC(c5ccc(NC6CCC(=O)NC6=O)cc5F)CC4)CC3)cn2cc1C(=O)Nc1cccc(C(F)F)n1` (some centres unmarked) [Example 18, N-[6-(difluoromethyl)-2-pyridyl]-2-[4-[[4-[4-[(2,6-dioxo-3-piperidyl)amino]-2-fluoro-phenyl]-1-piperidyl]methyl]cyclohexyl]-7-isopropoxy-imidazo[1,2-a]pyridine-6-carboxamide], the DC50 fell in the range of 10 to 100 nM. `CC(C)Oc1cc2nc([C@H]3CC[C@H](CN4CCC(c5ccc6c(c5)n(C)c(=O)n6C5CCC(=O)NC5=O)CC4)CC3)cn2cc1C(=O)Nc1cccc(C(F)F)n1` (some centres unmarked) [Example 19, N-[6-(difluoromethyl)-2-pyridyl]-2-[4-[[4-[1-(2,6-dioxo-3-piperidyl)-3-methyl-2-oxo-benzimidazol-5-yl]-1-piperidyl]methyl]cyclohexyl]-7-isopropoxy-imidazo[1,2-a]pyridine-6-carboxamide] displayed a DC50 of less than 10 nM. The figure for `CC(C)Oc1cc2nc([C@H]3CC[C@H](CN(C)C4CCN(c5ccc(NC6CCC(=O)NC6=O)cc5)CC4)CC3)cn2cc1C(=O)Nc1cccc(C(F)F)n1` (some centres unmarked) [Example 20, N-[6-(difluoromethyl)-2-pyridyl]-2-[4-[[[1-[4-[(2,6-dioxo-3-piperidyl)amino]phenyl]-4-piperidyl]-methyl-amino]methyl]cyclohexyl]-7-isopropoxy-imidazo[1,2-a]pyridine-6-carboxamide] is 10 to 100 nM. The figure for `CC(C)Oc1cc2nc([C@H]3CC[C@H](CN(C)C4CCN(c5cccc6c5n(C)c(=O)n6C5CCC(=O)NC5=O)CC4)CC3)cn2cc1C(=O)Nc1cccc(C(F)F)n1` (some centres unmarked) [Example 21, N-[6-(difluoromethyl)-2-pyridyl]-2-[4-[[[1-[1-(2,6-dioxo-3-piperidyl)-3-methyl-2-oxo-benzimidazol-4-yl]-4-piperidyl]-methyl-amino]methyl]cyclohexyl]-7-isopropoxy-imidazo[1,2-a]pyridine-6-carboxamide] is 10 to 100 nM; for `CC(C)Oc1cc2nc([C@H]3CC[C@H](CN4CCC(c5cccc(NC6CCC(=O)NC6=O)c5F)CC4)CC3)cn2cc1C(=O)Nc1cccc(C(F)F)n1` (some centres unmarked) [Example 22, N-[6-(difluoromethyl)-2-pyridyl]-2-[4-[[4-[3-[(2,6-dioxo-3-piperidyl)amino]-2-fluoro-phenyl]-1-piperidyl]methyl]cyclohexyl]-7-isopropoxy-imidazo[1,2-a]pyridine-6-carboxamide] it is 10 to 100 nM. The figure for `CC(C)Oc1cc2nc([C@H]3CC[C@H](CN(C)C4CCN(c5cccc(NC6CCC(=O)NC6=O)c5)CC4)CC3)cn2cc1C(=O)Nc1cccc(C(F)F)n1` (some centres unmarked) [Example 24, N-[6-(difluoromethyl)-2-pyridyl]-2-[4-[[[1-[3-[(2,6-dioxo-3-piperidyl)amino]phenyl]-4-piperidyl]-methyl-amino]methyl]cyclohexyl]-7-isopropoxy-imidazo[1,2-a]pyridine-6-carboxamide] is 10 to 100 nM.

With `CC(C)Oc1cc2nc([C@H]3CC[C@H](CN4CCC(c5ccc(C6CCC(=O)NC6=O)cc5)C(F)(F)C4)CC3)cn2cc1C(=O)Nc1cccc(C(F)F)n1` (some centres unmarked) [Example 25, N-[6-(difluoromethyl)-2-pyridyl]-2-[4-[[4-[4-(2,6-dioxo-3-piperidyl)phenyl]-3,3-difluoro-1-piperidyl]methyl]cyclohexyl]-7-isopropoxy-imidazo[1,2-a]pyridine-6-carboxamide], the DC50 lay within 100 to 500 nM.

For `CC(C)Oc1cc2nc([C@H]3CC[C@H](CN4CCC(c5cccc(NC6CCC(=O)NC6=O)c5)CC4)CC3)cn2cc1C(=O)Nc1cccc(C(F)F)n1` (some centres unmarked) [Example 26, N-[6-(difluoromethyl)-2-pyridyl]-2-[4-[[4-[3-[(2,6-dioxo-3-piperidyl)amino]phenyl]-1-piperidyl]methyl]cyclohexyl]-7-isopropoxy-imidazo[1,2-a]pyridine-6-carboxamide], the DC50 was 100 to 500 nM.

On to `CC(C)Oc1cc2nc([C@H]3CC[C@H](CN(C)C4CCN(c5ccc6c(c5)n(C)c(=O)n6C5CCC(=O)NC5=O)CC4)CC3)cn2cc1C(=O)Nc1cccc(C(F)F)n1` (some centres unmarked) [Example 27, N-[6-(difluoromethyl)-2-pyridyl]-2-[4-[[[1-[1-(2,6-dioxo-3-piperidyl)-3-methyl-2-oxo-benzimidazol-5-yl]-4-piperidyl]-methyl-amino]methyl]cyclohexyl]-7-isopropoxy-imidazo[1,2-a]pyridine-6-carboxamide], for which the DC50 fell in the range of 10 to 100 nM.

With `CC(C)Oc1cc2nc([C@H]3CC[C@H](CN(C)C4CCN(c5cccc(C6CCC(=O)NC6=O)c5)CC4)CC3)cn2cc1C(=O)Nc1cccc(C(F)F)n1` (some centres unmarked) [Example 28, N-[6-(difluoromethyl)-2-pyridyl]-2-[4-[[[1-[3-(2,6-dioxo-3-piperidyl)phenyl]-4-piperidyl]-methyl-amino]methyl]cyclohexyl]-7-isopropoxy-imidazo[1,2-a]pyridine-6-carboxamide], the DC50 lay in the range of 10 to 100 nM. The value for `CC(C)Oc1cc2nc([C@H]3CC[C@H](CN4CCC(c5ccc6c(c5)n(C)c(=O)n6C5CCC(=O)NC5=O)C(F)(F)C4)CC3)cn2cc1C(=O)Nc1cccc(C(F)F)n1` (some centres unmarked) [Example 29, N-[6-(difluoromethyl)-2-pyridyl]-2-[4-[[4-[1-(2,6-dioxo-3-piperidyl)-3-methyl-2-oxo-benzimidazol-5-yl]-3,3-difluoro-1-piperidyl]methyl]cyclohexyl]-7-isopropoxy-imidazo[1,2-a]pyridine-6-carboxamide] was 10 to 100 nM; that for `CC(C)Oc1cc2nc([C@H]3CC[C@H](CN(C)C4CCN(c5ccc(C6CCC(=O)NC6=O)cc5)CC4)CC3)cn2cc1C(=O)Nc1cccc(C(F)F)n1` (some centres unmarked) [Example 30, N-[6-(difluoromethyl)-2-pyridyl]-2-[4-[[[1-[4-(2,6-dioxo-3-piperidyl)phenyl]-4-piperidyl]-methyl-amino]methyl]cyclohexyl]-7-isopropoxy-imidazo[1,2-a]pyridine-6-carboxamide] was less than 10 nM; that for `CC(C)Oc1cc2nc([C@H]3CC[C@H](CN(C)C4CCN(Cc5ccc(NC6CCC(=O)NC6=O)cc5)CC4)CC3)cn2cc1C(=O)Nc1cccc(C(F)F)n1` (some centres unmarked) [Example 32, N-[6-(difluoromethyl)-2-pyridyl]-2-[4-[[[1-[[4-[(2,6-dioxo-3-piperidyl)amino]phenyl]methyl]-4-piperidyl]-methyl-amino]methyl]cyclohexyl]-7-isopropoxy-imidazo[1,2-a]pyridine-6-carboxamide] was 100 to 500 nM. The value for `CC(C)Oc1cc2nc([C@H]3CC[C@H](CN4CCC(c5cc6c(cc5F)c(N5CCC(=O)NC5=O)nn6C)C(F)(F)C4)CC3)cn2cc1C(=O)Nc1cccc(C(F)F)n1` (some centres unmarked) [Example 33, N-[6-(difluoromethyl)-2-pyridyl]-2-[4-[[4-[3-(2,4-dioxohexahydropyrimidin-1-yl)-5-fluoro-1-methyl-indazol-6-yl]-3,3-difluoro-1-piperidyl]methyl]cyclohexyl]-7-isopropoxy-imidazo[1,2-a]pyridine-6-carboxamide] was 100 to 500 nM.

`CC(C)Oc1cc2nc([C@H]3CC[C@H](CN(C)C4CCN(Cc5cccc(NC6CCC(=O)NC6=O)c5)CC4)CC3)cn2cc1C(=O)Nc1cccc(C(F)F)n1` (some centres unmarked) [Example 34, N-[6-(difluoromethyl)-2-pyridyl]-2-[4-[[[1-[[3-[(2,6-dioxo-3-piperidyl)amino]phenyl]methyl]-4-piperidyl]-methyl-amino]methyl]cyclohexyl]-7-isopropoxy-imidazo[1,2-a]pyridine-6-carboxamide] gave a half-maximal degradation concentration (DC50) of 100 to 500 nM. The value for `CC(C)Oc1cc2nc([C@H]3CC[C@H](CN4CCC(c5ccc(NC6CCC(=O)NC6=O)cn5)CC4)CC3)cn2cc1C(=O)Nc1cccc(C(F)F)n1` (some centres unmarked) [Example 35, N-[6-(difluoromethyl)-2-pyridyl]-2-[4-[[4-[5-[(2,6-dioxo-3-piperidyl)amino]-2-pyridyl]-1-piperidyl]methyl]cyclohexyl]-7-isopropoxy-imidazo[1,2-a]pyridine-6-carboxamide] was 10 to 100 nM; that for `CC(C)Oc1cc2nc([C@H]3CC[C@H](CN4CCC(c5ccc(NC6CCC(=O)NC6=O)cc5)C(F)(F)C4)CC3)cn2cc1C(=O)Nc1cccc(C(F)F)n1` (some centres unmarked) [Example 36, N-[6-(difluoromethyl)-2-pyridyl]-2-[4-[[4-[4-[(2,6-dioxo-3-piperidyl)amino]phenyl]-3,3-difluoro-1-piperidyl]methyl]cyclohexyl]-7-isopropoxy-imidazo[1,2-a]pyridine-6-carboxamide] was 100 to 500 nM.
